In patent publication US6518269B1, “Cancer treatment” (University of Arizona Foundation, priority 2000, dated 2003):

Legend:
B16 Murine Melanoma = assay: MTT growth inhibition assay, B16 Murine Melanoma; assay type: cell-based; settings: Mus musculus, B16 Murine Melanoma cells
Protocol: (§1) Each of the following compounds was tested for growth inhibition in a MTT assay against B16 Murine Melanoma and HT29 Colon Cancer, reported as IC50(μM).

HT29 Colon Cancer = assay: MTT growth inhibition assay, HT29 Colon Cancer; assay type: cell-based; settings: Homo sapiens, HT-29, HT29 Colon Cancer cells
Protocol: as §1

Row | IC50 (B16 Murine Melanoma) [nM] | IC50 (HT29 Colon Cancer) [nM] | SMILES
1 | 264 | 7 | O=c1cnnc(N/N=C/c2ccccc2O)[nH]1 [Compound I, benzaldehyde, 2-hydroxy-, (4-hydro-5-oxo-1,2,4-triazin-3-yl)hydrazide]
2 | 1100 | 19 | Cc1nnc(N/N=C/c2ccccc2O)[nH]c1=O [Compound II, benzaldehyde, 2-hydroxy-, (4-hydro-5-oxo-6-methyl-1,2,4-triazin-3-yl)hydrazide]
